Data reported in US9763445B2, “Safened herbicidal compositions comprising a pyridine carboxylic acid herbicide” (Dow AgroSciences, LLC, priority 2014, dated 2017).
Like-named read-outs stand apart in the source and are kept apart here.

Experiments:
[1] = system: kochia (KCHSC); experiment: Postemergence greenhouse trial, % visual injury on kochia; type: in vivo, Kochia scoparia; conditions: Bassia scoparia, post-emergence, read-out: % visual injury, Ob; for pest or weed control at 17.5 g/ha / pest or weed control at 35 g/ha / pest or weed control at 70 g/ha / pest or weed control at 4.375 g/ha / pest or weed control at 8.75 g/ha: KCHSC
Experimental: (§1) Seeds of the desired test plant species were planted in Sun Gro MetroMix® 306 planting mixture, which typically has a pH of 6.0 to 6.8 and an organic matter content of about 30 percent, in plastic pots with a surface area of 103.2 square centimeters (cm^2). When required to ensure good germination and healthy plants, a fungicide treatment and/or other chemical or physical treatment was applied. The plants were grown for 7-36 days (d) in a greenhouse with an approximate 14-hour (h) photoperiod which was maintained at about 23° C. during the day and 22° C. during the night. Nutrients and water were added on a regular basis and supplemental lighting was provided with overhead metal halide 1000-Watt lamps as necessary. The plants were employed for testing when they reached the second or third true leaf stage.
(§2) Weighed amounts of technical material were dissolved in a volume of 97:3 volume per volume (v/v) acetone/dimethyl sulfoxide (DMSO) to stock solutions. […] The concentrated stock solutions were diluted with an aqueous mixture of 1.5% v/v of Agri-dex crop oil concentrate to provide the appropriate application rates. Compound requirements are based upon a 12 milliliter (mL) application volume at a rate of 187 liters per hectare (L/ha). Stocks solutions of the safeners were prepared following the same procedure. Spray solutions of the safeners and experimental compound mixtures were prepared by adding the stock solutions to the appropriate amount of dilution solution to form a 12 mL spray solution in two-way combinations. Formulated compounds were applied to the plant material with an overhead Mandel track sprayer equipped with 8002E nozzles calibrated to deliver 187 L/ha over an application area of 0.503 square meters (m^2) at a spray height of 18 inches (43 centimeters (cm)) above average plant canopy. Control plants were sprayed in the same manner with the solvent blank. All herbicide application (component a) rates are in g ae/ha and all safener (component b) rates are in g ai/ha.
(§3) The treated plants and control plants were placed in a greenhouse as described above and watered by sub-irrigation to prevent wash-off of the test compounds. After 20-22 d, the condition of the test plants as compared with that of the control plants was determined visually and scored on a scale of 0 to 100 percent where 0 corresponds to no injury and 100 corresponds to complete kill. Colby's equation was used to determine the herbicidal effects expected from the mixtures. […]

[2] = system: pigweed (AMARE); experiment: Postemergence greenhouse trial, % visual injury on pigweed; type: in vivo, Amaranthus retroflexus; conditions: Amaranthus retroflexus, post-emergence, read-out: % visual injury, Ob
Experimental: as §1, §2
(§4) The treated plants and control plants were placed in a greenhouse as described above and watered by sub-irrigation to prevent wash-off of the test compounds. After 20-22 d, the condition of the test plants as compared with that of the control plants was determined visually and scored on a scale of 0 to 100 percent where 0 corresponds to no injury and 100 corresponds to complete kill. The condition of the test plants was compared with that of the control plants as determined visually and scored on a scale of 0 to 100 percent, where 0 corresponds to no injury and 100 corresponds to complete kill. Colby's equation was used to determine the herbicidal effects expected from the mixtures.
(§5) The safener cloquintocet-mexyl was combined with compound 1, compound 2, compound 4, compound 5, and compound 6, and applied to corn/maize (ZEAMX) and spring wheat (TRZAS) and the phytotoxicity of the herbicidal compositions was measured. In addition, the efficacy of the herbicidal composition on velvetleaf (ABUTH, Abutilon theophrasti), pigweed (AMARE, Amaranthus retroflexus), winter rape (BRSNW, Brassica napus), lambsquarters (CHEAL, Chenopodium album), thistle (CIRAR, Cirsium arvense), nutsedge (CYPES, Cyperus esculentus), poinsettia (EPHHL, Euphorbia heterophylla), wild buckwheat (POLCO, Polygonum convolvulus), giant foxtail (SETFA, Setaria faberi), and chickweed (STEME, Stellaria media) was evaluated. […]
The safener cloquintocet-acid and a number of agriculturally acceptable esters and salts (-mexyl, -dimethylammonium salt and -triethylammonium salt) were combined in varying ratios with compound 1 and applied to spring wheat (TRZAS), winter wheat (TRZAW), and spring barley (HORVS), and the phytotoxicity of the herbicidal compositions was measured. […]

[3] = system: lambsquarters (CHEAL); experiment: Postemergence greenhouse trial, % visual injury on lambsquarters; type: in vivo, Chenopodium album; conditions: Chenopodium album, post-emergence, read-out: % visual injury, Ob
Experimental: as §1, §2, §4
(§6) The safener cloquintocet-mexyl was combined with compound 1, compound 2, compound 4, compound 5, and compound 6, and applied to corn/maize (ZEAMX) and spring wheat (TRZAS) and the phytotoxicity of the herbicidal compositions was measured. In addition, the efficacy of the herbicidal composition on velvetleaf (ABUTH, Abutilon theophrasti), pigweed (AMARE, Amaranthus retroflexus), winter rape (BRSNW, Brassica napus), lambsquarters (CHEAL, Chenopodium album), thistle (CIRAR, Cirsium arvense), nutsedge (CYPES, Cyperus esculentus), poinsettia (EPHHL, Euphorbia heterophylla), wild buckwheat (POLCO, Polygonum convolvulus), giant foxtail (SETFA, Setaria faberi), and chickweed (STEME, Stellaria media) was evaluated.
(§7) The safener cloquintocet-mexyl was combined with compound 1, compound 2, compound 3, compound 7, compound 8, compound 9, compound 10, compound 11, compound 12, compound 13, compound 14, compound 15, compound 16, compound 17, compound 18, compound 19, and compound 20, and applied to spring wheat (TRZAS), winter wheat (TRZAW), and spring barley (HORVS) and the phytotoxicity of the herbicidal compositions was measured. […]

[4] = system: spring wheat (TRZAS); experiment: Postemergence greenhouse trial, % visual injury on spring wheat; type: in vivo, Triticum aestivum
Experimental: as §1, §2, §4, §6, §7

[5] = system: spring barley (HORVS); experiment: Postemergence greenhouse trial, % visual injury on spring barley; type: in vivo, Hordeum vulgare
Experimental: as §1, §2, §4, §7

[6] = system: prickly lettuce (LACSE); experiment: Postemergence greenhouse trial, % visual injury on prickly lettuce; type: in vivo, Lactuca serriola; conditions: LACSE, CQC-m 0
Experimental: as §1, §2, §3

[7] = system: wild mustard (SINAR); experiment: Postemergence greenhouse trial, % visual injury on wild mustard; type: in vivo, Sinapis arvensis; conditions: Brassica, post-emergence, SINAR, CQC-m 0, read-out: % visual injury, Ob
Experimental: as §1, §2, §3

[8] = system: winter rape (BRSNW); experiment: Postemergence greenhouse trial, % visual injury on winter rape; type: in vivo, Brassica napus; conditions: Brassica napus, post-emergence, BRSNW, read-out: % visual injury, Ob
Experimental: as §1, §2, §4, §5

[9] = system: bird's-eye speedwell (VERPE); experiment: Postemergence greenhouse trial, % visual injury on bird's-eye speedwell; type: in vivo, Veronica persica; conditions: VERPE, CQC-m 0
Experimental: as §1, §2, §3

[10] = system: common poppy (PAPRH); experiment: Postemergence greenhouse trial, % visual injury on common poppy; type: in vivo, Papaver rhoeas; conditions: Papaver rhoeas, post-emergence, PAPRH, applied alone, read-out: % visual injury, Ob
Experimental: as §1, §2, §3

[11] = TRZAS, 4.375 g/ha, applied alone
[12] = TRZAS, 8.75 g/ha, applied alone
[13] = TRZAS, 17.5 g/ha, applied alone
[14] = HORVS, 4.375 g/ha, applied alone
[15] = HORVS, 8.75 g/ha, applied alone
[16] = HORVS, 17.5 g/ha, applied alone

SMILES: Nc1c(F)c(-c2ccc3cc[nH]c3c2F)nc(C(=O)[O-])c1Cl.[K+] [compound 7]
- pest or weed control at 20 g/ha [1]: 65%
- pest or weed control at 20 g/ha [2]: 88%
- pest or weed control at 20 g/ha [3]: 90%
- % visual injury, Ob ([4]; alone, 20 g/ha): 10%
- % visual injury, Ob ([5]; alone, 20 g/ha): 5%

SMILES: COC(=O)c1nc(-c2ccc3cc[nH]c3c2F)c(F)c(/N=C/N(C)C)c1Cl [compound 11]
- % visual injury, Ob ([6]; compound 17.5 g/ha): 0%
- % visual injury, Ob ([6]; compound 35 g/ha): 10%
- % visual injury, Ob ([6]; compound 70 g/ha): 40%
- pest or weed control at 17.5 g/ha ([7]; compound 17.5 g/ha): 95%
- pest or weed control at 35 g/ha ([7]; compound 35 g/ha): 100%
- pest or weed control at 70 g/ha ([7]; compound 70 g/ha): 100%
- pest or weed control at 17.5 g/ha ([1]; compound 17.5 g/ha, CQC-m 0): 70%
- pest or weed control at 35 g/ha ([1]; compound 35 g/ha, CQC-m 0): 90%
- pest or weed control at 70 g/ha ([1]; compound 70 g/ha, CQC-m 0): 90%
- plant injury at 17.5 g/ha ([8]; compound 17.5 g/ha, CQC-m 0): 95%
- plant injury at 35 g/ha ([8]; compound 35 g/ha, CQC-m 0): 100%
- plant injury at 70 g/ha ([8]; compound 70 g/ha, CQC-m 0): 100%
- % visual injury, Ob ([9]; compound 17.5 g/ha): 85%
- % visual injury, Ob ([9]; compound 35 g/ha): 90%
- % visual injury, Ob ([9]; compound 70 g/ha): 95%
- % visual injury, Ob ([4]; TRZAS, compound 17.5 g/ha, CQC-m 0): 10%
- % visual injury, Ob ([4]; TRZAS, compound 35 g/ha, CQC-m 0): 20%
- % visual injury, Ob ([4]; TRZAS, compound 70 g/ha, CQC-m 0): 40%
- % visual injury, Ob ([5]; HORVS, compound 17.5 g/ha, CQC-m 0): 10%
- % visual injury, Ob ([5]; HORVS, compound 35 g/ha, CQC-m 0): 20%
- % visual injury, Ob ([5]; HORVS, compound 70 g/ha, CQC-m 0): 40%

SMILES: COc1c(N)nc(-c2ccc3sccc3c2)nc1C(=O)O [compound 19]
- pest or weed control at 4.375 g/ha [10]: 80%
- pest or weed control at 8.75 g/ha [10]: 80%
- pest or weed control at 17.5 g/ha [10]: 85%
- pest or weed control at 35 g/ha [10]: 90%
- pest or weed control at 70 g/ha [10]: 95%
- pest or weed control at 4.375 g/ha ([1]; applied alone): 0%
- pest or weed control at 8.75 g/ha ([1]; applied alone): 0%
- pest or weed control at 17.5 g/ha ([1]; 17.5 g/ha, applied alone): 0%
- pest or weed control at 35 g/ha ([1]; 35 g/ha, applied alone): 10%
- pest or weed control at 70 g/ha ([1]; 70 g/ha, applied alone): 60%
- plant injury at 4.375 g/ha ([8]; 4.375 g/ha, applied alone): 0%
- plant injury at 8.75 g/ha ([8]; 8.75 g/ha, applied alone): 10%
- plant injury at 17.5 g/ha ([8]; 17.5 g/ha, applied alone): 20%
- plant injury at 35 g/ha ([8]; 35 g/ha, applied alone): 25%
- plant injury at 70 g/ha ([8]; 70 g/ha, applied alone): 30%
- % visual injury, Ob [4, 11]: 0%
- % visual injury, Ob [4, 12]: 10%
- % visual injury, Ob [4, 13]: 30%
- % visual injury, Ob ([4]; TRZAS, 35 g/ha, applied alone): 40%
- % visual injury, Ob ([4]; TRZAS, 70 g/ha, applied alone): 50%
- % visual injury, Ob [5, 14]: 0%
- % visual injury, Ob [5, 15]: 10%
- % visual injury, Ob [5, 16]: 10%
- % visual injury, Ob ([5]; HORVS, 35 g/ha, applied alone): 15%
- % visual injury, Ob ([5]; HORVS, 70 g/ha, applied alone): 35%

SMILES: COC(=O)c1nc(-c2ccc3sccc3c2)c(F)c(N)c1Cl [compound 18]
- pest or weed control at 4.375 g/ha [10]: 90%
- pest or weed control at 8.75 g/ha [10]: 90%
- pest or weed control at 17.5 g/ha [10]: 93%
- pest or weed control at 35 g/ha [10]: 93%
- pest or weed control at 70 g/ha [10]: 95%
- pest or weed control at 4.375 g/ha ([1]; applied alone): 30%
- pest or weed control at 8.75 g/ha ([1]; applied alone): 40%
- pest or weed control at 17.5 g/ha ([1]; 17.5 g/ha, applied alone): 75%
- pest or weed control at 35 g/ha ([1]; 35 g/ha, applied alone): 93%
- pest or weed control at 70 g/ha ([1]; 70 g/ha, applied alone): 90%
- % visual injury, Ob [4, 11]: 10%
- % visual injury, Ob [4, 12]: 25%
- % visual injury, Ob [4, 13]: 40%
- % visual injury, Ob ([4]; TRZAS, 35 g/ha, applied alone): 50%
- % visual injury, Ob ([4]; TRZAS, 70 g/ha, applied alone): 70%
- % visual injury, Ob [5, 14]: 15%
- % visual injury, Ob [5, 15]: 25%
- % visual injury, Ob [5, 16]: 40%
- % visual injury, Ob ([5]; HORVS, 35 g/ha, applied alone): 50%
- % visual injury, Ob ([5]; HORVS, 70 g/ha, applied alone): 70%
